Data as given in patent US9249129B2, “Morpholino substituted urea derivatives as mTOR inhibitors” (CELLZOME LIMITED, priority 2010, dated 2016).

What was measured:
Assay in all cases: kinobeads assay with mass spectrometry detection of kinases (kinase selectivity profile)
Assay type in all cases: binding
kinases (kinome) [1] = target: T1, kinases (kinome) (Homo sapiens, UniProt O60885); conditions: BRD4 (Atypical), IPI00440727
T1 construct: determined in kinobeads assays with mass spectrometry detection of kinases as described previously; endogenous in cells; host or cells: cell lysate
Description: (§1) The protein kinase complement of the human genome (the kinome) was described previously (Manning et al., 2002. Science 298(5600):1912-1934). Sequence accession numbers are defined by the International Protein Index (IPI) (Kersey et al., 2004. Proteomics 4(7):1985-1988).

kinases (kinome) [2] = target: T2, kinases (kinome) (Homo sapiens, UniProt P24941); conditions: CDK2 (CMGC), IPI00031681
T2 construct: determined in kinobeads assays with mass spectrometry detection of kinases as described previously; endogenous in cells; host or cells: cell lysate
Description: as §1

kinases (kinome) [3] = target: T3, kinases (kinome) (Homo sapiens, UniProt P28482); conditions: Erk2 (CMGC), IPI00003479
T3 construct: determined in kinobeads assays with mass spectrometry detection of kinases as described previously; endogenous in cells; host or cells: cell lysate
T3 sequence (P28482 whole entry): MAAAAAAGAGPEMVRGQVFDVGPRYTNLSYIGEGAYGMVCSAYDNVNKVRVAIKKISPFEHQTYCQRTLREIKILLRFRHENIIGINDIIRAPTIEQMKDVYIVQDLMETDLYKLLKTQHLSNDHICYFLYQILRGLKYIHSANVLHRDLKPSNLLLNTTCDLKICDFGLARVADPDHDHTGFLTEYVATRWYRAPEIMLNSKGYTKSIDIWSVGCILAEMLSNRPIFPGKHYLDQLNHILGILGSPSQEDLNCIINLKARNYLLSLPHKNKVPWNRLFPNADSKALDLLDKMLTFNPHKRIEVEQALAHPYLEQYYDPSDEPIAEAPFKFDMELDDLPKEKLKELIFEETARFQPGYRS
Description: as §1

kinases (kinome) [4] = target: T4, kinases (kinome) (Homo sapiens, UniProt P29597); conditions: TYK2 (TK), IPI00022353
T4 construct: determined in kinobeads assays with mass spectrometry detection of kinases as described previously; endogenous in cells; host or cells: cell lysate
T4 sequence (P29597 whole entry): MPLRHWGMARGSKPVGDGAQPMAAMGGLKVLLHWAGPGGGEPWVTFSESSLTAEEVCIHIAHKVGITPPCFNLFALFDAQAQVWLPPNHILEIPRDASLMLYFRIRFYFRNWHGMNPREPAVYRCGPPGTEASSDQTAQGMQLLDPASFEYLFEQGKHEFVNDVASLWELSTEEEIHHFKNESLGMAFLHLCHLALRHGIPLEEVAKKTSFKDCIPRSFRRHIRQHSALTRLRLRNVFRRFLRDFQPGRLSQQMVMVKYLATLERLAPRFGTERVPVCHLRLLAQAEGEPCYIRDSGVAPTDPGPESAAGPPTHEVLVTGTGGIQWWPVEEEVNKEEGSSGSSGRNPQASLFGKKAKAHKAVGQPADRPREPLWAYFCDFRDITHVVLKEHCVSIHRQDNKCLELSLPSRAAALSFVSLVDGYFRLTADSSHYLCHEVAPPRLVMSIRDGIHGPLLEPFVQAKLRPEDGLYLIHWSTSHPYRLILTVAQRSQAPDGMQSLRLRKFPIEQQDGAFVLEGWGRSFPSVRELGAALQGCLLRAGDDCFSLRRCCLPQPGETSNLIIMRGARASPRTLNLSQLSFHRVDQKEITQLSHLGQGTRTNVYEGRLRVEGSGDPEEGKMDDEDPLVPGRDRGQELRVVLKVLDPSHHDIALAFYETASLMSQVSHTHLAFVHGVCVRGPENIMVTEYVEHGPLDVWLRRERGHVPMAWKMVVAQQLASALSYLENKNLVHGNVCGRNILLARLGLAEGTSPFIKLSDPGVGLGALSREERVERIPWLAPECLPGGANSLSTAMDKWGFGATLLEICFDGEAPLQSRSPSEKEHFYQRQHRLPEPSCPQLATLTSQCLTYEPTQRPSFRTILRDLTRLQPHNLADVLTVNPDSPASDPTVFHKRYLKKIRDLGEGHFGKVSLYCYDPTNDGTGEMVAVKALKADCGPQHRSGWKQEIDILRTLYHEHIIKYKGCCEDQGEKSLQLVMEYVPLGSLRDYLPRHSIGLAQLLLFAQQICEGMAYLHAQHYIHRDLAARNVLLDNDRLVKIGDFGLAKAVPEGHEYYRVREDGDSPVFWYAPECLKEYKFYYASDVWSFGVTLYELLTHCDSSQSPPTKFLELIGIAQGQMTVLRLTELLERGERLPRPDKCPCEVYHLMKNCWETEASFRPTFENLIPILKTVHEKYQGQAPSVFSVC
Description: as §1

kinases (kinome) [5] = target: T5, kinases (kinome) (Homo sapiens, UniProt P42680); conditions: TEC (TK), IPI00000878
T5 construct: determined in kinobeads assays with mass spectrometry detection of kinases as described previously; endogenous in cells; host or cells: cell lysate
T5 sequence (P42680 1-631): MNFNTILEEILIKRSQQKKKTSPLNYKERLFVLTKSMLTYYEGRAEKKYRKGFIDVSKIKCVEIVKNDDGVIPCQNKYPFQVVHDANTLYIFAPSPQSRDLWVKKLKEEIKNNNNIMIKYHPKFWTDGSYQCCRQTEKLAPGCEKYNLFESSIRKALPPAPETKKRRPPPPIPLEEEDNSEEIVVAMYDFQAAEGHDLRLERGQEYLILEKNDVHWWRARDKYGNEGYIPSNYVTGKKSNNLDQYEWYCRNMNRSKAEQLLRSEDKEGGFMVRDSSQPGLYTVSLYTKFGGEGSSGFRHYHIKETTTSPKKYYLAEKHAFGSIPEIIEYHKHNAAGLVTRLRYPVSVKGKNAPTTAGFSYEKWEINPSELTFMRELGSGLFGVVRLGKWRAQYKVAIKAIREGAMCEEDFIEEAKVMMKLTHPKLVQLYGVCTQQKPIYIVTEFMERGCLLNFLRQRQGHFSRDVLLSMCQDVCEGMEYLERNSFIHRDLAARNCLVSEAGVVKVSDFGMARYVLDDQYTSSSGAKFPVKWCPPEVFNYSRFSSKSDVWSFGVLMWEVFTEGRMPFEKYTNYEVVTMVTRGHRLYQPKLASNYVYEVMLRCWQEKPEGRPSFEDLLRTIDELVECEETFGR
Description: as §1

kinases (kinome) [6] = target: T6, kinases (kinome) (Homo sapiens, UniProt P45984); conditions: JNK2 (CMGC), IPI00303550
T6 construct: determined in kinobeads assays with mass spectrometry detection of kinases as described previously; endogenous in cells; host or cells: cell lysate
Description: as §1

kinases (kinome) [7] = target: T7, kinases (kinome) (Homo sapiens, UniProt P78527); conditions: DNAPK (Atypical), IPI00296337
T7 construct: determined in kinobeads assays with mass spectrometry detection of kinases as described previously; endogenous in cells; host or cells: cell lysate
Description: as §1

kinases (kinome) [8] = target: T8, kinases (kinome) (Homo sapiens, UniProt Q00534); conditions: CDK6 (CMGC), IPI00023529
T8 construct: determined in kinobeads assays with mass spectrometry detection of kinases as described previously; endogenous in cells; host or cells: cell lysate
Description: as §1

kinases (kinome) [9] = target: T9, kinases (kinome) (Homo sapiens, UniProt Q00535); conditions: CDK5 (CMGC), IPI00023530
T9 construct: determined in kinobeads assays with mass spectrometry detection of kinases as described previously; endogenous in cells; host or cells: cell lysate
T9 sequence (Q00535 whole entry): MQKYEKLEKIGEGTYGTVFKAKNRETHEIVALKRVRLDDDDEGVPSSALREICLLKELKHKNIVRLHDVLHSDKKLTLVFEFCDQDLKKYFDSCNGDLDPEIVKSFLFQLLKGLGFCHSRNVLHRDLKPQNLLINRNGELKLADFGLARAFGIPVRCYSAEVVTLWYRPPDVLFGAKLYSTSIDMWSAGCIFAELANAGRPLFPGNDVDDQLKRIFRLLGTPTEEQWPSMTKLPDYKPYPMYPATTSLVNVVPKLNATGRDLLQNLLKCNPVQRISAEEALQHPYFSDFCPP
Description: as §1

kinases (kinome) [10] = target: T10, kinases (kinome) (Homo sapiens, UniProt Q06187); conditions: BTK (TK), IPI00029132
T10 construct: determined in kinobeads assays with mass spectrometry detection of kinases as described previously; endogenous in cells; host or cells: cell lysate
Description: as §1

kinases (kinome) [11] = target: T11, kinases (kinome) (Homo sapiens, UniProt Q07912); conditions: ACK (TK), IPI00552750
T11 construct: determined in kinobeads assays with mass spectrometry detection of kinases as described previously; endogenous in cells; host or cells: cell lysate
T11 sequence (Q07912 whole entry): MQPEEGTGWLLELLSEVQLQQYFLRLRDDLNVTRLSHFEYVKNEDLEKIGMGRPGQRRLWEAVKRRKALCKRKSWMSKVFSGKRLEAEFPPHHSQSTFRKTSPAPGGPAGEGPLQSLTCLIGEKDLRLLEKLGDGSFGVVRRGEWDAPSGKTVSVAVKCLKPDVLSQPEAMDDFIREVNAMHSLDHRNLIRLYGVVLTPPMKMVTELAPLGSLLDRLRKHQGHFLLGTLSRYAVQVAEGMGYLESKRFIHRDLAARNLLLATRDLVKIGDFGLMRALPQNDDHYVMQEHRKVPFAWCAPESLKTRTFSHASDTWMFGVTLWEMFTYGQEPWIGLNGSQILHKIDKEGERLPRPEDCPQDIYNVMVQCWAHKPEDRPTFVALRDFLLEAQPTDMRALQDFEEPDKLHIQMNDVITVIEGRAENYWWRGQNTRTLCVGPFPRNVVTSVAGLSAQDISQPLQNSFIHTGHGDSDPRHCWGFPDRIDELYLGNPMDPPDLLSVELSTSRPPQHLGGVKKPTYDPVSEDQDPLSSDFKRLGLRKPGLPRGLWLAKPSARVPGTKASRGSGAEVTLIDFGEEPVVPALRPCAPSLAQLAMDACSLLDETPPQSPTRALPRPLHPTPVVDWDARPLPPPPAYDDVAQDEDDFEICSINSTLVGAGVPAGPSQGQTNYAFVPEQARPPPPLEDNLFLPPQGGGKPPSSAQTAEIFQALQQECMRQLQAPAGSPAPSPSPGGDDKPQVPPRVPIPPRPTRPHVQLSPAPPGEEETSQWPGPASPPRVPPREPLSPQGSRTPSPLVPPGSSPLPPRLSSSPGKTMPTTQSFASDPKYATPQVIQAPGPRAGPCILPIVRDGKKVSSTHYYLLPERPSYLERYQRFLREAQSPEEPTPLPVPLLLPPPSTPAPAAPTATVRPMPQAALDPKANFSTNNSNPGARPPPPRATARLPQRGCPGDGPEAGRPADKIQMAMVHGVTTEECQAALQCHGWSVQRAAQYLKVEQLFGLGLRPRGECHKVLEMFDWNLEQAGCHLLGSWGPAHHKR
Description: as §1

kinases (kinome) [12] = target: T12, kinases (kinome) (Homo sapiens, UniProt Q08345); conditions: DDR1 (TK), IPI00657861
T12 construct: determined in kinobeads assays with mass spectrometry detection of kinases as described previously; endogenous in cells; host or cells: cell lysate
Description: as §1

kinases (kinome) [13] = target: T13, kinases (kinome) (Homo sapiens, UniProt Q13043); conditions: MST1 (STE), IPI00011488
T13 construct: determined in kinobeads assays with mass spectrometry detection of kinases as described previously; endogenous in cells; host or cells: cell lysate
T13 sequence (Q13043 1-487): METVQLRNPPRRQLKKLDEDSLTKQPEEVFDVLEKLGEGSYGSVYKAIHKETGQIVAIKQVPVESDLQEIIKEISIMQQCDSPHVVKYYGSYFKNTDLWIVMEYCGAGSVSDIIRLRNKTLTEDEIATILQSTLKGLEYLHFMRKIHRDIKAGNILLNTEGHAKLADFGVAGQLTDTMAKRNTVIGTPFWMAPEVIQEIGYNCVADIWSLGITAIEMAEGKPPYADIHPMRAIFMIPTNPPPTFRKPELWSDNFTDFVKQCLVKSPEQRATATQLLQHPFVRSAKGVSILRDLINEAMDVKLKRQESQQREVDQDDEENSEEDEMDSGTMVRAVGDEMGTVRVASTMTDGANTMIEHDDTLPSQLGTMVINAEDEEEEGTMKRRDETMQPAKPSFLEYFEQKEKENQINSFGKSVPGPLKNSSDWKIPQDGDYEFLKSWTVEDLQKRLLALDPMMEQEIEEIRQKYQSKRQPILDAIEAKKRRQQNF
Description: as §1

kinases (kinome) [14] = target: T14, kinases (kinome) (Homo sapiens, UniProt Q15059); conditions: BRD3 (Atypical), IPI00014266
T14 construct: determined in kinobeads assays with mass spectrometry detection of kinases as described previously; endogenous in cells; host or cells: cell lysate
Description: as §1

kinases (kinome) [15] = target: kinases (kinome) (Homo sapiens, UniProt Q15418); conditions: RSK3 (AGC), IPI00477982
Description: as §1

kinases (kinome) [16] = target: T15, kinases (kinome) (Homo sapiens, UniProt Q16512); conditions: PKN1 (AGC), IPI00412672
T15 construct: determined in kinobeads assays with mass spectrometry detection of kinases as described previously; endogenous in cells; host or cells: cell lysate
T15 sequence (Q16512 whole entry): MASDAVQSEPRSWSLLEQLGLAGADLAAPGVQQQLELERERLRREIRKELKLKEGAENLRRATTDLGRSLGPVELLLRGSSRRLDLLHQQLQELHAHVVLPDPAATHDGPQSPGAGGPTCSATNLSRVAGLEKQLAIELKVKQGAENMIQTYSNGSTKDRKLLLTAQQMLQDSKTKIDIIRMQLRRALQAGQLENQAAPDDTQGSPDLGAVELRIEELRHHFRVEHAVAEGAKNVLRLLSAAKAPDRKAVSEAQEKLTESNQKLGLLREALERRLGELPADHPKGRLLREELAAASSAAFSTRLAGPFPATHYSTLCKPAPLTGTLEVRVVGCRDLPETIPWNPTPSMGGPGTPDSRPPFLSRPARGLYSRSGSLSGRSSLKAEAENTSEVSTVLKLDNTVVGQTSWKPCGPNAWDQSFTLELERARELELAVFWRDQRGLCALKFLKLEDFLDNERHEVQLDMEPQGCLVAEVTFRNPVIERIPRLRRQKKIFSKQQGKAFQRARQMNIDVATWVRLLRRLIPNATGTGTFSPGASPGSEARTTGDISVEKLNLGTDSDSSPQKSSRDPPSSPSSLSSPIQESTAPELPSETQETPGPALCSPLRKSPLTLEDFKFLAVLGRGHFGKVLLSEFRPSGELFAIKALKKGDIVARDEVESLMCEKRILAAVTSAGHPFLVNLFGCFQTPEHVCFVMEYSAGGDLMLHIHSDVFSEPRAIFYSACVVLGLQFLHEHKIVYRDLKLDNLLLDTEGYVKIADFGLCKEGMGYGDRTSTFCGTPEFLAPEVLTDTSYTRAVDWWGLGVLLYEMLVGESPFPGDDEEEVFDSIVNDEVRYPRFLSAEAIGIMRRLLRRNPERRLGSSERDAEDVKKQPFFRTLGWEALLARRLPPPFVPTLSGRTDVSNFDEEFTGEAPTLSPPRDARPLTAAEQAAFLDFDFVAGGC
Description: as §1

kinases (kinome) [17] = target: T16, kinases (kinome) (Homo sapiens, UniProt Q16539); conditions: p38a (CMGC), IPI00221141
T16 construct: determined in kinobeads assays with mass spectrometry detection of kinases as described previously; endogenous in cells; host or cells: cell lysate
Description: as §1

kinases (kinome) [18] = target: T17, kinases (kinome) (Homo sapiens, UniProt Q9BVS4); conditions: RIOK2 (Atypical), IPI00306406
T17 construct: determined in kinobeads assays with mass spectrometry detection of kinases as described previously; endogenous in cells; host or cells: cell lysate
Description: as §1

kinases (kinome) [19] = target: T18, kinases (kinome) (Homo sapiens, UniProt Q9H0K1); conditions: QIK (CAMK), IPI00465291
T18 construct: determined in kinobeads assays with mass spectrometry detection of kinases as described previously; endogenous in cells; host or cells: cell lysate
Description: as §1

kinases (kinome) [20] = target: T19, kinases (kinome) (Homo sapiens, UniProt Q9NSY1); conditions: BIKE (Other), IPI00337426
T19 construct: determined in kinobeads assays with mass spectrometry detection of kinases as described previously; endogenous in cells; host or cells: cell lysate
T19 sequence (Q9NSY1 whole entry): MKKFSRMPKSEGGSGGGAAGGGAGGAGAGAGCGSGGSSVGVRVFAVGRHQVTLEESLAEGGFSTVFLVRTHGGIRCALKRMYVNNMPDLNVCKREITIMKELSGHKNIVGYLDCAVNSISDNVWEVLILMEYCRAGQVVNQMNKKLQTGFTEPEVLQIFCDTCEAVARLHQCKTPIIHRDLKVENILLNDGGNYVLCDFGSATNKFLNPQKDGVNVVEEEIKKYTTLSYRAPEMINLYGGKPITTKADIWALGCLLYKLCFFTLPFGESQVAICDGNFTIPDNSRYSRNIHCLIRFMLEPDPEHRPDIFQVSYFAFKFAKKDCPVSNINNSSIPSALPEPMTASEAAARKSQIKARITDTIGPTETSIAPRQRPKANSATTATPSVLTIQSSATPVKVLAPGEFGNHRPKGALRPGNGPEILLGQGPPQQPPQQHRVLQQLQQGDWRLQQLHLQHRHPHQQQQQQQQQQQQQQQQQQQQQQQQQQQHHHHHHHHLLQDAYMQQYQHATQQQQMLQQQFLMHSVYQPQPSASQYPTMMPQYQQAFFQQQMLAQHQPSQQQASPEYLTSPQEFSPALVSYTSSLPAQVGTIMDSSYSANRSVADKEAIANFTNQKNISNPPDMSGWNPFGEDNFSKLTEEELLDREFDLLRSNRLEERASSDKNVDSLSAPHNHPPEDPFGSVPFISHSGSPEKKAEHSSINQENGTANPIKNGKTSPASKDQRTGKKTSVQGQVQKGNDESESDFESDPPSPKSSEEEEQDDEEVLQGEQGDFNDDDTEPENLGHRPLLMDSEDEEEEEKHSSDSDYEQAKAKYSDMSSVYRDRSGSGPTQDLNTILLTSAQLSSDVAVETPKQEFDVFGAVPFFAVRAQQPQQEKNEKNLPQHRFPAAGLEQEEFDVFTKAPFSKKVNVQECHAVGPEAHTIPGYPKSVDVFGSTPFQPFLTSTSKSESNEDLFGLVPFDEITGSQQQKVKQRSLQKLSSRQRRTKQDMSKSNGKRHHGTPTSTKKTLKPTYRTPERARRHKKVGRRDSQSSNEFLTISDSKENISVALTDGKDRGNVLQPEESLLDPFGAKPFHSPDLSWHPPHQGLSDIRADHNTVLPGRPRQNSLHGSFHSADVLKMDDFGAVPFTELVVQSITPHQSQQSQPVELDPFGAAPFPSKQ
Description: as §1

kinases (kinome) [21] = target: T20, kinases (kinome) (Homo sapiens, UniProt Q9NYL2); conditions: ZAK (TKL), IPI00329638
T20 construct: determined in kinobeads assays with mass spectrometry detection of kinases as described previously; endogenous in cells; host or cells: cell lysate
Description: as §1

IC50 (kinases (kinome) [1]) | IC50 (kinases (kinome) [2]) | IC50 (kinases (kinome) [3]) | IC50 (kinases (kinome) [4]) | IC50 (kinases (kinome) [5]) | IC50 (kinases (kinome) [6]) | IC50 (kinases (kinome) [7]) | IC50 (kinases (kinome) [8]) | IC50 (kinases (kinome) [9]) | IC50 (kinases (kinome) [10]) | IC50 (kinases (kinome) [11]) | IC50 (kinases (kinome) [12]) | IC50 (kinases (kinome) [13]) | IC50 (kinases (kinome) [14]) | IC50 (kinases (kinome) [15]) | IC50 (kinases (kinome) [16]) | IC50 (kinases (kinome) [17]) | IC50 (kinases (kinome) [18]) | IC50 (kinases (kinome) [19]) | IC50 (kinases (kinome) [20]) | Compound | further results
> 10 µM | > 10 µM | > 10 µM | > 10 µM | > 10 µM | > 10 µM | > 10 µM | > 10 µM | > 10 µM | > 10 µM | > 10 µM | > 10 µM | > 10 µM | > 10 µM | > 10 µM | > 10 µM | > 10 µM | > 10 µM | > 10 µM | > 10 µM | C[C@H]1COCCN1c1nc(-c2ccc(NC(=O)NC3CC3)cc2)cc(-c2cccnc2S(C)(=O)=O)n1 [Example 46, (S)-1-cyclopropyl-3-(4-(2-(3-methylmorpholino)-6-(2-(methylsulfonyl)pyridin-3-yl)pyrimidin-4-yl)phenyl)urea] | IC50 (kinases (kinome) [21]): > 10 µM
> 10 µM | > 10 µM | > 10 µM | > 10 µM | > 10 µM | > 10 µM | > 10 µM | > 10 µM | > 10 µM | > 10 µM | > 10 µM | > 10 µM | > 10 µM | > 10 µM | > 10 µM | > 10 µM | > 10 µM | > 10 µM | > 10 µM | > 10 µM | C[C@H]1COCCN1c1nc(-c2ccc(NC(=O)N[C@H]3CCC[C@@H]3O)cc2)cc(-c2cc(F)ccc2S(C)(=O)=O)n1 [Example 76, 1-(4-(6-(5-fluoro-2-(methylsulfonyl)phenyl)-2-((S)-3-methylmorpholino)pyrimidin-4-yl)phenyl)-3-((1S,2S)-2-hydroxycyclopentyl)urea] | IC50 (kinases (kinome) [21]): > 10 µM
> 10 µM | > 10 µM | > 10 µM | > 10 µM | > 10 µM | > 10 µM | > 10 µM | > 10 µM | > 10 µM | > 10 µM | > 10 µM | > 10 µM | > 10 µM | > 10 µM | > 10 µM | > 10 µM | > 10 µM | > 10 µM | > 10 µM | > 10 µM | C[C@H]1COCCN1c1cc(-c2ccccn2)nc(-c2ccc(NC(=O)NCCO)cc2)n1 [Example 43, (S)-1-(2-hydroxyethyl)-3-(4-(4-(3-methylmorpholino)-6-(pyridin-2-yl)pyrimidin-2-yl)phenyl)urea] | IC50 (kinases (kinome) [21]): > 10 µM
> 10 µM | > 10 µM | > 10 µM | > 10 µM | > 10 µM | > 10 µM | > 10 µM | > 10 µM | > 10 µM | > 10 µM | > 10 µM | > 10 µM | > 10 µM | > 10 µM | > 10 µM | > 10 µM | > 10 µM | > 10 µM | > 10 µM | > 10 µM | C[C@H]1COCCN1c1nc(-c2ccc(NC(=O)NC3CC3)cc2)cc(-c2cc(F)ccc2S(C)(=O)=O)n1 [Example 40, (S)-1-cyclopropyl-3-(4-(6-(5-fluoro-2-(methylsulfonyl)phenyl)-2-(3-methylmorpholino)pyrimidin-4-yl)phenyl)urea] | IC50 (kinases (kinome) [21]): > 10 µM
